Each molecule was assayed against T1, human LPA1 (Homo sapiens, UniProt Q92633) (assay: LPA1 functional antagonist assay (LPA-induced calcium flux)). Conditions: CHO cells overexpressing human LPA1; inhibition of calcium flux induced by 10 nM LPA; read-out: hLPA1 IC50.
T1 construct: expressed in transfected cells; host or cells: Chinese hamster ovary (CHO) cells
T1 sequence (Q92633 whole entry): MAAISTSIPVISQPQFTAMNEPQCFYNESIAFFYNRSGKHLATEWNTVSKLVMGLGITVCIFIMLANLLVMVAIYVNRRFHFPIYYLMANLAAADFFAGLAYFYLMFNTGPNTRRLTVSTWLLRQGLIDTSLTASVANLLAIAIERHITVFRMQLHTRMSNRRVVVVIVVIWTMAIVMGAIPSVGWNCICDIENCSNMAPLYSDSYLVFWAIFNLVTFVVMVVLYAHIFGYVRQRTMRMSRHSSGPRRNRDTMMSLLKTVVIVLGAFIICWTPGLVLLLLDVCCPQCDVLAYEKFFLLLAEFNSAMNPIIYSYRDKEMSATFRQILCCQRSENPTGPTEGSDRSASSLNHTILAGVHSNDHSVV
Type: cell-based
Procedure, shortened: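 CHO cells overexpressing human LPA1, loaded with calcium dye 30 min at 37° C, were preincubated 20 min at room temperature with compound (0.08 nM–5 μM, 0.5% DMSO) in HBSS/20 mM HEPES/0.1% fatty acid-free BSA.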
For Cc1nc(-c2nnn(C)c2COC(=O)N(C)CC(C)C)cnc1O[C@H]1CCC[C@H](C(=O)O)C1 [Example 224, (1S,3S)-3-((5-(5-(((isobutyl(methyl)carbamoyl)oxy)methyl)-1-methyl-1H-1,2,3-triazol-4-yl)-3-methylpyrazin-2-yl)oxy)cyclohexane-1-carboxylic acid], the IC50 was 121 nM. Molecule Cc1nc(-c2nnn(C)c2COC(=O)N(C)CCC2CC2)cnc1O[C@H]1CCC[C@H](C(=O)O)C1 [Example 225, (1S,3S)-3-((5-(5-((((2-cyclopropylethyl)(methyl)carbamoyl)oxy)methyl)-1-methyl-1H-1,2,3-triazol-4-yl)-3-methylpyrazin-2-yl)oxy)cyclohexane-1-carboxylic acid] has an IC50 of 70 nM. Cc1nc(-c2nnn(C)c2COC(=O)N(C)C2CCCC2)cnc1O[C@H]1CCC[C@H](C(=O)O)C1 [Example 226, (1S,3S)-3-((5-(5-(((cyclopentyl(methyl)carbamoyl)oxy)methyl)-1-methyl-1H-1,2,3-triazol-4-yl)-3-methylpyrazin-2-yl)oxy)cyclohexane-1-carboxylic acid] showed an IC50 of 49 nM. In the case of Cc1nc(-c2nnn(C)c2COC(=O)N(C)CC2CCCC2)cnc1O[C@H]1CCC[C@H](C(=O)O)C1 [Example 227, (1S,3S)-3-((5-(5-((((cyclopentylmethyl)(methyl)carbamoyl)oxy)methyl)-1-methyl-1H-1,2,3-triazol-4-yl)-3-methylpyrazin-2-yl)oxy)cyclohexane-1-carboxylic acid], the IC50 is reported as 18 nM. In the case of Cc1nc(-c2nnn(C)c2COC(=O)N(C)Cc2ccccc2)cnc1O[C@H]1CCC[C@H](C(=O)O)C1 [Example 228, (1S,3S)-3-((5-(5-(((benzyl(methyl)carbamoyl)oxy)methyl)-1-methyl-1H-1,2,3-triazol-4-yl)-3-methylpyrazin-2-yl)oxy)cyclohexane-1-carboxylic acid], the IC50 is reported as 60 nM. For Cc1nc(-c2nnn(C)c2COC(=O)N(C)C2CCC2)cnc1O[C@H]1CCC[C@H](C(=O)O)C1 [Example 229, (1S,3S)-3-((5-(5-(((cyclobutyl(methyl)carbamoyl)oxy)methyl)-1-methyl-1H-1,2,3-triazol-4-yl)-3-methylpyrazin-2-yl)oxy)cyclohexane-1-carboxylic acid], the IC50 was 76 nM. In the case of Cc1nc(-c2nnn(C)c2COC(=O)N(C)CCCF)cnc1O[C@H]1CCC[C@H](C(=O)O)C1 [Example 230, (1S,3S)-3-((5-(5-((((3-fluoropropyl)(methyl)carbamoyl)oxy)methyl)-1-methyl-1H-1,2,3-triazol-4-yl)-3-methylpyrazin-2-yl)oxy)cyclohexane-1-carboxylic acid], the IC50 is reported as 390 nM. Cc1nc(-c2nnn(C)c2COC(=O)N(C)CC(C)(C)C)cnc1O[C@H]1CCC[C@H](C(=O)O)C1 [Example 231, (1S,3S)-3-((3-methyl-5-(1-methyl-5-(((methyl(neopentyl)carbamoyl)oxy)methyl)-1H-1,2,3-triazol-4-yl)pyrazin-2-yl)oxy)cyclohexane-1-carboxylic acid] gave an IC50 of 88 nM. With Cc1nc(-c2nnn(C)c2COC(=O)N(C)CC(C)(C)F)cnc1O[C@H]1CCC[C@H](C(=O)O)C1 [Example 232, (1S,3S)-3-((5-(5-((((2-fluoro-2-methylpropyl)(methyl)carbamoyl)oxy)methyl)-1-methyl-1H-1,2,3-triazol-4-yl)-3-methylpyrazin-2-yl)oxy)cyclohexane-1-carboxylic acid] the IC50 was 191 nM. Cc1nc(-c2nnn(C)c2COC(=O)N(C)CC2(F)CCC2)cnc1O[C@H]1CCC[C@H](C(=O)O)C1 [Example 233, (1S,3S)-3-((5-(5-(((((1-fluoro-cyclobutyl)methyl)(methyl)carbamoyl)oxy)methyl)-1-methyl-1H-1,2,3-triazol-4-yl)-3-methylpyrazin-2-yl)oxy)cyclohexane-1-carboxylic acid] gave an IC50 of 122 nM. In the case of Cc1nc(-c2nnn(C)c2COC(=O)N(C)CC2(F)CCCC2)cnc1O[C@H]1CCC[C@H](C(=O)O)C1 [Example 234, (1S,3S)-3-((5-(5-(((((1-fluorocyclopentyl)methyl)(methyl)carbamoyl)oxy)methyl)-1-methyl-1H-1,2,3-triazol-4-yl)-3-methylpyrazin-2-yl)oxy)cyclohexane-1-carboxylic acid], the IC50 is reported as 72 nM. With Cc1nc(-c2nnn(C)c2COC(=O)N(C)C[C@@H]2C[C@H]2C)cnc1O[C@H]1CCC[C@H](C(=O)O)C1 [Example 235, (1S,3S)-3-((3-methyl-5-(1-methyl-5-(((methyl(((1R,2R)-2-methylcyclopropyl)methyl)carbamoyl)oxy)methyl)-1H-1,2,3-triazol-4-yl)pyrazin-2-yl)oxy)cyclohexane-1-carboxylic acid] the IC50 was 70 nM. For Cc1nc(-c2nnn(C)c2COC(=O)N(C)C[C@H]2C[C@@H]2C)cnc1O[C@H]1CCC[C@H](C(=O)O)C1 [Example 236, (1S,3S)-3-((3-methyl-5-(1-methyl-5-(((methyl(((1S,2S)-2-methylcyclopropyl)methyl)carbamoyl)oxy)methyl)-1H-1,2,3-triazol-4-yl)pyrazin-2-yl)oxy)cyclohexane-1-carboxylic acid], the IC50 was 46 nM. CN(CC1CC1)C(=O)OCc1c(-c2cnc(O[C@H]3CCC[C@H](C(=O)O)C3)c(C(F)(F)F)c2)nnn1C [Example 237, (1S,3S)-3-((5-(5-((((cyclopropylmethyl)(methyl)carbamoyl)oxy)methyl)-1-methyl-1H-1,2,3-triazol-4-yl)-3-(trifluoromethyl)pyridin-2-yl)oxy)cyclohexane-1-carboxylic acid] showed an IC50 of 2400 nM. For CN(C(=O)OCc1c(-c2cnc(O[C@H]3CCC[C@H](C(=O)O)C3)c(C(F)(F)F)c2)nnn1C)C1CCCC1 [Example 238, (1S,3S)-3-((5-(5-(((cyclopentyl(methyl)carbamoyl)oxy)methyl)-1-methyl-1H-1,2,3-triazol-4-yl)-3-(trifluoromethyl)pyridin-2-yl)oxy)cyclohexane-1-carboxylic acid], the IC50 was 174 nM. CN(CC1CCC1)C(=O)OCc1c(-c2cnc(O[C@H]3CCC[C@H](C(=O)O)C3)c(C(F)(F)F)c2)nnn1C [Example 239, (1S,3S)-3-((5-(5-((((cyclobutylmethyl)(methyl)carbamoyl)oxy)methyl)-1-methyl-1H-1,2,3-triazol-4-yl)-3-(trifluoromethyl)pyridin-2-yl)oxy)cyclohexane-1-carboxylic acid] gave an IC50 of 440 nM. In the case of CN(C(=O)OCc1c(-c2cnc(O[C@H]3CCC[C@H](C(=O)O)C3)c(C(F)(F)F)c2)nnn1C)C1CCC1 [Example 240, (1S,3S)-3-((5-(5-(((cyclobutyl(methyl)carbamoyl)oxy)methyl)-1-methyl-1H-1,2,3-triazol-4-yl)-3-(trifluoromethyl)pyridin-2-yl)oxy)cyclohexane-1-carboxylic acid], the IC50 is reported as 1210 nM. In the case of Cc1nc(-c2nnn(C)c2CCOC(=O)N(C)CC2CCC2)ccc1O[C@H]1CCC[C@H](C(=O)O)C1 [Example 241, (1S,3S)-3-((6-(5-(2-(((Cyclobutylmethyl)(methyl)carbamoyl)oxy)ethyl)-1-methyl-1H-1,2,3-triazol-4-yl)-2-methylpyridin-3-yl)oxy)cyclohexane-1-carboxylic Acid], the IC50 is reported as 41 nM. Work on CCCN(C)C(=O)OCCc1c(-c2ccc(O[C@H]3CCC[C@H](C(=O)O)C3)c(C)n2)nnn1C [Example 242, (1S,3S)-3-((2-Methyl-6-(1-methyl-5-(2-((methyl(propyl)carbamoyl)oxy)-ethyl)-1H-1,2,3-triazol-4-yl)pyridin-3-yl)oxy)cyclohexane-1-carboxylic acid] yielded an IC50 of 319 nM. Cc1nc(-c2nnn(C)c2CCOC(=O)N(C)C2CCCC2)ccc1O[C@H]1CCC[C@H](C(=O)O)C1 [Example 243, (1S,3S)-3-((6-(5-(2-((Cyclopentyl-(methyl)carbamoyl)oxy)ethyl)-1-methyl-1H-1,2,3-triazol-4-yl)-2-methylpyridin-3-yl)oxy)cyclohexane-1-carboxylic acid] showed an IC50 of 72 nM. Cc1nc(-c2nnn(C)c2CCOC(=O)N(C)Cc2ccccc2)ccc1O[C@H]1CCC[C@H](C(=O)O)C1 [Example 244, (1S,3S)-3-((6-(5-(2-((Benzyl(methyl)-carbamoyl)oxy)ethyl)-1-methyl-1H-1,2,3-triazol-4-yl)-2-methylpyridin-3-yl)oxy)cyclohexane-1-carboxylic acid] showed an IC50 of 54 nM. Molecule Cc1nc(-c2nnn(C)c2CCOC(=O)N(C)CC(C)C)ccc1O[C@H]1CCC[C@H](C(=O)O)C1 [Example 245, (1S,3S)-3-((6-(5-(2-((Isobutyl-(methyl)carbamoyl)oxy)ethyl)-1-methyl-1H-1,2,3-triazol-4-yl)-2-methylpyridin-3-yl)oxy)cyclohexane-1-carboxylic acid] has an IC50 of 69 nM. With Cc1nc(-c2nnn(C)c2CCOC(=O)N2CCCC2)ccc1O[C@H]1CCC[C@H](C(=O)O)C1 [Example 246, (2S,3S)-3-((2-Methyl-6-(1-methyl-5-(2-((pyrrolidine-1-carbonyl)oxy)-ethyl)-1H-1,2,3-triazol-4-yl)pyridin-3-yl)oxy)cyclohexane-1-carboxylic acid] the IC50 was 210 nM. With Cc1nc(-c2nnn(C)c2CCOC(=O)N(C)C2CCC2)ccc1O[C@H]1CCC[C@H](C(=O)O)C1 [Example 247, (1S,3S)-3-((6-(5-(2-((Cyclobutyl(methyl)carbamoyl)oxy)ethyl)-1-methyl-1H-1,2,3-triazol-4-yl)-2-methylpyridin-3-yl)oxy)cyclo-hexane-1-carboxylic acid] the IC50 was 41 nM. Cc1nc(-c2nnn(C)c2CCOC(=O)NCC2CCC2)ccc1O[C@H]1CCC[C@H](C(=O)O)C1 [Example 248, (1S,3S)-3-((6-(5-(2-(((Cyclobutyl-methyl)carbamoyl)oxy)ethyl)-1-methyl-1H-1,2,3-triazol-4-yl)-2-methylpyridin-3-yl)oxy)cyclohexane-1-carboxylic acid] gave an IC50 of 144 nM. Cc1nc(-c2nnn(C)c2CCCOC(=O)N(C)Cc2ccccc2)ccc1O[C@H]1CCC[C@H](C(=O)O)C1 [Example 249, (1S,3S)-3-((6-(5-(3-((Benzyl(methyl)carbamoyl)oxy)propyl)-1-methyl-1H-1,2,3-triazol-4-yl)-2-methylpyridin-3-yl)oxy)cyclohexane-1-carboxylic Acid] gave an IC50 of 122 nM.

Source: patent publication US10576062B2, “Carbamoyloxymethyl triazole cyclohexyl acids as LPA antagonists” (Bristol-Myers Squibb Company, priority 2016, dated 2020)
